We go through twelve compounds from PubChem BioAssay (NCI).

Some test systems named below: CAKI-1 renal; EKVX NSCLC; KM12 colon; OVCAR-8 ovarian; RXF 393 renal; SK-MEL-28 melanoma; SK-MEL-5 melanoma; SN12C renal; SNB-19 CNS; A498 renal.
Holding throughout (test): NCI-60 cell line screen, 48 h

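96-well plates; 48 h exposure; 5 concentrations. Endpoints by linear interpolation between flanking doses. Not reached: highest tested concentration assigned. Here, GI50 denotes the concentration required for 50% inhibition of growth. TGI: concentration producing complete growth inhibition.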 A value given as a limit tells only on which side of the number the result lay.

`COc1cc2c(cc1OC)C(CCc1ccc(Cl)cc1)N(C)CC2` (configuration not stated): the GI50 with CAKI-1 renal is 10.7 µM; in the test with EKVX NSCLC it was 16.7 µM; with KM12 colon, 19.5 µM; with OVCAR-8 ovarian it was 32.6 µM; with RXF 393 renal, 17.8 µM; with SK-MEL-28 melanoma, 20.1 µM. For the same compound, the GI50 in the test with SK-MEL-5 melanoma is 14.4 µM; in the test on SN12C renal, 39.9 µM; in the test on SNB-19 CNS, 37.1 µM. The TGI in the test with CAKI-1 renal is 31.7 µM; in the test with EKVX NSCLC it was 81 µM; in the test on KM12 colon, 38.1 µM; in the test with OVCAR-8 ovarian it was over 100 µM; with RXF 393 renal, 58.3 µM; in the test on SK-MEL-28 melanoma, 46.9 µM. Further, the TGI was 27.6 µM with SK-MEL-5 melanoma, over 100 µM with SN12C renal and over 100 µM in the test with SNB-19 CNS.
As for `CN(C)c1cccc(-c2cc(=O)c3ccccc3[nH]2)c1`, the TGI in the test with EKVX NSCLC, with KM12 colon, with OVCAR-8 ovarian, in the test with RXF 393 renal, in the test on SK-MEL-28 melanoma and in the test with SN12C renal was over 100 µM throughout. The TGI in the test on SNB-19 CNS is over 100 µM. The GI50 with RXF 393 renal was 35.4 µM.
As for `CCc1cccc(C(C)CC)c1N=C(NC(=O)c1ccccc1C(=O)NC(=Nc1c(CC)cccc1C(C)CC)SC)SC` (configuration not stated), the TGI in the test on CAKI-1 renal, in the test on EKVX NSCLC, with KM12 colon, in the test on OVCAR-8 ovarian, in the test with RXF 393 renal and with SK-MEL-28 melanoma was over 100 µM in each case. Further, the TGI with SN12C renal and in the test on SNB-19 CNS was over 100 µM each time.
Consider `CC(=O)CC(=O)CCCC(=O)Nc1ccc(Cl)cc1C`, for which the TGI in the test with A498 renal, in the test with CAKI-1 renal, in the test on EKVX NSCLC, in the test with KM12 colon, with OVCAR-8 ovarian and with SK-MEL-5 melanoma was over 100 µM throughout. Also, the TGI in the test with SN12C renal and in the test with SNB-19 CNS was over 100 µM in each case.
`O=C1NC(=NCC(CO)c2ccccc2)S/C1=C\c1ccc2ncccc2c1` (configuration not stated): the GI50 was over 15.3 µM in the test with A498 renal; over 25 µM with CAKI-1 renal; 14.7 µM in the test on KM12 colon; over 25 µM in the test on OVCAR-8 ovarian; over 20.3 µM with RXF 393 renal; over 25 µM in the test on SK-MEL-28 melanoma. Besides, the GI50 in the test on SK-MEL-5 melanoma is over 25 µM; in the test on SN12C renal, 17.6 µM; in the test with SNB-19 CNS it was over 25 µM. For the same compound, the TGI in the test with A498 renal, in the test on CAKI-1 renal, in the test with KM12 colon, in the test on OVCAR-8 ovarian, with RXF 393 renal and with SK-MEL-28 melanoma was over 25 µM each time. For the same compound, the TGI in the test with SK-MEL-5 melanoma, with SN12C renal and in the test on SNB-19 CNS was over 25 µM each time.
With `Cc1cc(C)nc(NS(=O)(=O)c2ccc(Nc3c4ccccc4nc4c(C(=O)NCCN(C)C)ccc(Cl)c34)cc2)n1`, the TGI turned out to be 15.5 µM in the test on EKVX NSCLC; 12.5 µM with KM12 colon; 2.69 µM with OVCAR-8 ovarian; 6.31 µM in the test on RXF 393 renal; 17.9 µM in the test on SK-MEL-28 melanoma; 15.2 µM with SK-MEL-5 melanoma. Besides, the results for the TGI with SN12C renal and in the test with SNB-19 CNS were 8.2 µM and 6.08 µM, respectively.
For the compound `C=C1CC[C@@H]2C(C)(C)[C@@H](O)CC[C@@]2(C)[C@@H]1COc1ccc2ccc(=O)oc2c1`, the GI50 in the test on CAKI-1 renal is 13.4 µM; with EKVX NSCLC, 10.6 µM; with KM12 colon it was 12.3 µM; in the test with RXF 393 renal, 7.41 µM; in the test on SK-MEL-28 melanoma, 15.1 µM; with SK-MEL-5 melanoma, 5.68 µM. For the same compound, the GI50 with SN12C renal and with SNB-19 CNS was 14.1 µM each time. The TGI in the test with CAKI-1 renal came to 55.6 µM; in the test with EKVX NSCLC, 25.6 µM; in the test on KM12 colon, 29.1 µM; in the test with OVCAR-8 ovarian it was 78.7 µM; in the test with RXF 393 renal, 21.9 µM; in the test on SK-MEL-28 melanoma it was 30.1 µM. For the same compound, the TGI with SK-MEL-5 melanoma was 18 µM; in the test on SN12C renal, 30.8 µM; in the test with SNB-19 CNS, 34.2 µM.
Take `C/C(=N\NC(=O)CC(=O)Nc1ccc(C)cc1)c1cc2ccccc2oc1=O`: the TGI in the test on EKVX NSCLC, with KM12 colon, with OVCAR-8 ovarian, in the test on RXF 393 renal, in the test with SK-MEL-28 melanoma and with SK-MEL-5 melanoma was over 100 µM throughout. Further, the TGI in the test on SN12C renal and in the test with SNB-19 CNS was over 100 µM each time.
`Cc1cc2c3ccccc3n(C)c2c2c1C(=O)c1ccccc1C2=O`: the TGI in the test with A498 renal is over 100 µM; in the test with CAKI-1 renal, 54.8 µM; with EKVX NSCLC, over 100 µM; with KM12 colon it was over 100 µM; with OVCAR-8 ovarian, 76.2 µM; with SK-MEL-28 melanoma, 65 µM. Further, the TGI with SN12C renal was 41.7 µM; with SNB-19 CNS, 80.3 µM.
On to `N=C(N)n1ncc(Cl)c(Cl)c1=O`, for which the TGI is 35.1 µM with A498 renal; 3.31 µM with CAKI-1 renal; 5.07 µM with EKVX NSCLC; 20.2 µM in the test on KM12 colon; 4.55 µM with OVCAR-8 ovarian; 5.26 µM with SK-MEL-28 melanoma. In addition, the TGI stood at 15.2 µM in the test with SK-MEL-5 melanoma, 8.44 µM in the test with SN12C renal and 12.9 µM with SNB-19 CNS.
As to `C/C(CN1C(=O)c2ccccc2C1=O)=N\NS(=O)(=O)c1ccccc1`, the TGI with A498 renal, in the test with CAKI-1 renal, with EKVX NSCLC, in the test with KM12 colon, in the test on OVCAR-8 ovarian and with SK-MEL-28 melanoma was over 100 µM each time. In addition, the TGI in the test on SK-MEL-5 melanoma, in the test on SN12C renal and in the test on SNB-19 CNS was over 100 µM in each case.
Turning to `O=C(CC(=O)N1N=C(n2ccc3ccccc32)CC1c1ccccc1)Nc1cccc(Cl)c1` (configuration not stated), the TGI with A498 renal, with EKVX NSCLC, in the test with KM12 colon, with OVCAR-8 ovarian, with RXF 393 renal and in the test on SK-MEL-28 melanoma was over 100 µM throughout. For the same compound, the TGI in the test with SN12C renal and with SNB-19 CNS was over 100 µM each time.
